Reference: PubChem BioAssay AID2060493 (Molecular Pharmacology Branch, DTP, NCI, 2025)

Tested on: 616215-338-R-J1-PDC tumor spheroids, viability
Assay: Anticancer human tumor 616215-338-R-J1-PDC patient-derived colon adenocarcinoma cell line growth inhibition [GQUAD]
Details: spheroids with HUVEC and MSC; for IC50: curve of first compound; for viability, T/C: stronger effect = lower value
In short: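 Viability of tumor cells grown as complex spheroids with endothelial and stromal cells, exposed to drug combinations. Top concentration at or near clinical Cmax (else 10 microM), diluted in half-log increments.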

[1] = second compound 0.0316 µM, first compound 0.0316 µM
[2] = second compound 0.0316 µM, first compound 0.1 µM
[3] = second compound 0.0316 µM, first compound 0.316 µM
[4] = second compound 0.0316 µM, first compound 1 µM
[5] = second compound 0.0316 µM, first compound 3.16 µM
[6] = second compound 0.0316 µM, first compound 10 µM
[7] = second compound 0.1 µM, first compound 0.0316 µM
[8] = second compound 0.1 µM, first compound 0.1 µM
[9] = second compound 0.1 µM, first compound 0.316 µM
[10] = second compound 0.1 µM, first compound 1 µM
[11] = second compound 0.1 µM, first compound 3.16 µM
[12] = second compound 0.1 µM, first compound 10 µM
[13] = second compound 0.316 µM, first compound 0.0316 µM
[14] = second compound 0.316 µM, first compound 0.1 µM
[15] = second compound 0.316 µM, first compound 0.316 µM
[16] = second compound 0.316 µM, first compound 1 µM
[17] = second compound 0.316 µM, first compound 3.16 µM
[18] = second compound 0.316 µM, first compound 10 µM
[19] = second compound 1 µM, first compound 0.0316 µM
[20] = second compound 1 µM, first compound 0.1 µM
[21] = second compound 1 µM, first compound 0.316 µM
[22] = second compound 1 µM, first compound 1 µM
[23] = second compound 1 µM, first compound 3.16 µM
[24] = second compound 1 µM, first compound 10 µM
[25] = second compound 3.16 µM, first compound 0.0316 µM
[26] = second compound 3.16 µM, first compound 0.1 µM
[27] = second compound 3.16 µM, first compound 0.316 µM
[28] = second compound 3.16 µM, first compound 1 µM
[29] = second compound 3.16 µM, first compound 3.16 µM
[30] = second compound 3.16 µM, first compound 10 µM
[31] = second compound 10 µM, first compound 0.0316 µM
[32] = second compound 10 µM, first compound 0.1 µM
[33] = second compound 10 µM, first compound 0.316 µM
[34] = second compound 10 µM, first compound 1 µM
[35] = second compound 10 µM, first compound 3.16 µM
[36] = second compound 10 µM, first compound 10 µM
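Further: spheroids exposed to agents for 7 days before readout.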
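Wherever viability, T/C is given: percent viability relative to DMSO vehicle control wells taken as 100%.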

CC1COCCN1c1cc(C2(S(C)(=N)=O)CC2)nc(-c2ccnc3[nH]ccc23)n1 (stereo unspecified) + CN(C)c1ccc(Nc2c3ccc(NC(=O)CCN4CCCC4)cc3nc3cc(NC(=O)CCN4CCCC4)ccc23)cc1
IC50 (second compound 0.0316 µM): 2.8 µM
IC50 (second compound 0.1 µM): 4.91 µM
IC50 (second compound 0.316 µM): 5.62 µM
IC50 (second compound 1 µM): 5.2 µM
IC50 (second compound 3.16 µM): 5.18 µM
IC50 (second compound 10 µM): 3.47 µM
viability, T/C [1]: 116%
viability, T/C [2]: 102%
viability, T/C [3]: 103%
viability, T/C [4]: 97.6%
viability, T/C [5]: 44.4%
viability, T/C [6]: 31.5%
viability, T/C [7]: 105%
viability, T/C [8]: 97%
viability, T/C [9]: 104%
viability, T/C [10]: 98%
viability, T/C [11]: 63.5%
viability, T/C [12]: 28.2%
viability, T/C [13]: 98.1%
viability, T/C [14]: 106%
viability, T/C [15]: 102%
viability, T/C [16]: 96.6%
viability, T/C [17]: 69.9%
viability, T/C [18]: 30.1%
viability, T/C [19]: 93.2%
viability, T/C [20]: 97.3%
viability, T/C [21]: 99.3%
viability, T/C [22]: 95.9%
viability, T/C [23]: 69.2%
viability, T/C [24]: 24.8%
viability, T/C [25]: 99%
viability, T/C [26]: 102%
viability, T/C [27]: 94.3%
viability, T/C [28]: 97.7%
viability, T/C [29]: 68.1%
viability, T/C [30]: 25.9%
viability, T/C [31]: 94%
viability, T/C [32]: 94%
viability, T/C [33]: 89.2%
viability, T/C [34]: 86.1%
viability, T/C [35]: 51.7%
viability, T/C [36]: 29.6%

COc1ccc([C@@H](O)c2cc(-c3ncnc4cc(N5CCOCC5)ccc34)c(F)cc2Cl)nn1 + CN(C)c1ccc(Nc2c3ccc(NC(=O)CCN4CCCC4)cc3nc3cc(NC(=O)CCN4CCCC4)ccc23)cc1
IC50 (second compound 0.0316 µM): > 10 µM
IC50 (second compound 0.1 µM): > 10 µM
IC50 (second compound 0.316 µM): > 10 µM
IC50 (second compound 1 µM): 8.16 µM
IC50 (second compound 3.16 µM): 6.04 µM
IC50 (second compound 10 µM): 3.4 µM
viability, T/C [1]: 105%
viability, T/C [2]: 99.2%
viability, T/C [3]: 101%
viability, T/C [4]: 98.1%
viability, T/C [5]: 93.1%
viability, T/C [6]: 58.6%
viability, T/C [7]: 96.3%
viability, T/C [8]: 94.6%
viability, T/C [9]: 104%
viability, T/C [10]: 102%
viability, T/C [11]: 87.6%
viability, T/C [12]: 55.6%
viability, T/C [13]: 101%
viability, T/C [14]: 93%
viability, T/C [15]: 102%
viability, T/C [16]: 103%
viability, T/C [17]: 97.7%
viability, T/C [18]: 54.6%
viability, T/C [19]: 97.7%
viability, T/C [20]: 100%
viability, T/C [21]: 94.3%
viability, T/C [22]: 92.7%
viability, T/C [23]: 89.1%
viability, T/C [24]: 41.3%
viability, T/C [25]: 91%
viability, T/C [26]: 89.9%
viability, T/C [27]: 90.4%
viability, T/C [28]: 101%
viability, T/C [29]: 74.9%
viability, T/C [30]: 30.6%
viability, T/C [31]: 91.3%
viability, T/C [32]: 90.8%
viability, T/C [33]: 93.7%
viability, T/C [34]: 64.2%
viability, T/C [35]: 57.6%
viability, T/C [36]: 10.2%

O=C(c1cc(Cc2n[nH]c(=O)c3ccccc23)ccc1F)N1CCN(C(=O)C2CC2)CC1 + CN(C)c1ccc(Nc2c3ccc(NC(=O)CCN4CCCC4)cc3nc3cc(NC(=O)CCN4CCCC4)ccc23)cc1
IC50 (second compound 0.0316 µM): > 10 µM
IC50 (second compound 0.1 µM): > 10 µM
IC50 (second compound 0.316 µM): > 10 µM
IC50 (second compound 1 µM): > 10 µM
IC50 (second compound 3.16 µM): > 10 µM
IC50 (second compound 10 µM): > 10 µM
viability, T/C [1]: 100%
viability, T/C [2]: 95.7%
viability, T/C [3]: 103%
viability, T/C [4]: 111%
viability, T/C [5]: 110%
viability, T/C [6]: 71.9%
viability, T/C [7]: 103%
viability, T/C [8]: 102%
viability, T/C [9]: 104%
viability, T/C [10]: 103%
viability, T/C [11]: 111%
viability, T/C [12]: 74.8%
viability, T/C [13]: 104%
viability, T/C [14]: 114%
viability, T/C [15]: 112%
viability, T/C [16]: 106%
viability, T/C [17]: 99.3%
viability, T/C [18]: 68.6%
viability, T/C [19]: 108%
viability, T/C [20]: 100%
viability, T/C [21]: 96.9%
viability, T/C [22]: 97.3%
viability, T/C [23]: 104%
viability, T/C [24]: 69%
viability, T/C [25]: 112%
viability, T/C [26]: 97.8%
viability, T/C [27]: 98.8%
viability, T/C [28]: 109%
viability, T/C [29]: 105%
viability, T/C [30]: 57.4%
viability, T/C [31]: 96.6%
viability, T/C [32]: 82.9%
viability, T/C [33]: 99.3%
viability, T/C [34]: 99.6%
viability, T/C [35]: 67%
viability, T/C [36]: 54.9%
